In US20090181975A1, “NEBIVOLOL IN THE TREATMENT OF SEXUAL DYSFUNCTION” (FOREST LABORATORIES HOLDINGS LIMITED, priority 2008, published 2009):

Tests used:
[1] = tested on: nitrite plus nitrate (NOx) in rat serum; assay: Serum NOx in STZ-diabetic rats; type: in vivo, rat (Sprague-Dawley); settings: for effect on NOx content in sera from diabetic rats: 3 and 10 mg/kg/day s.c. for 10 days
Method: Male Sprague-Dawley rats were used as a model for this study. Diabetes was induced by a single injection of streptozotocin (STZ, 60 mg/kg; i.p.) dissolved in 0.1 M citric acid/trisodic citrate buffer (pH 4-4.5) and was assessed by glycemia determination 72 h after induction. Animals were kept, with free access to food and water, for 8 weeks before experimental assays. Eight weeks after induction of diabetes, rats show altered in vivo vascular function (Angulo et al., Naunyn-Schmiedeberg's Arch Pharmacol, 358(5), 529-37, 1998) and reduced erectile responses (Angulo et al., J. Sex Med., 2, 341-346, 2005). Blood glucose concentration was determined each week and just before the experiment. Insulin levels were not determined. Total NO derivatives (nitrites plus nitrates) were measured in pre-filtered (10,000 MW pore size) serum samples from the studied rats by the Griess colorimetric method, using a commercial kit for nitrite and nitrate determination from Cayman Chemical Co. (Ann Arbor, Mich.). See […] et al., Methods Enzymol., 268, 142-151, 1996. […] After 10 days treatment, diabetic rats were anesthetized and erectile responses to cavernosal nerve electrical stimulation (CNES) were determined. After an equilibration period, the PDE-5 inhibitor sildenafil (0.3 mg/kg) or the vehicle (25% glycofurol) was intravenously administered. Forty five minutes later, erectile responses to CNES were again evaluated, and 5 min after CNES application, blood was collected for obtaining plasma and serum, and the penis was excised. Serum samples were immediately frozen until determinations of NOx and TBARS. Plasma and penile tissues were immediately frozen until determinations of cGMP.

diabetic rats = assay: Erectile responses to cavernosal nerve electrical stimulation (CNES) in STZ-diabetic rats; type: in vivo, rat (Sprague-Dawley); settings: for erectile responses after sildenafil compared with non diabetic rats treated with sildenafil: 10 days treatment, then sildenafil 0.3 mg/kg i.v.
Method: Male Sprague-Dawley rats were used as a model for this study. Diabetes was induced by a single injection of streptozotocin (STZ, 60 mg/kg; i.p.) dissolved in 0.1 M citric acid/trisodic citrate buffer (pH 4-4.5) and was assessed by glycemia determination 72 h after induction. Animals were kept, with free access to food and water, for 8 weeks before experimental assays. Eight weeks after induction of diabetes, rats show reduced erectile responses (Angulo et al., Naunyn-Schmiedeberg's Arch Pharmacol, 358(5), 529-37, 1998; Angulo et al., J. Sex Med., 2, 341-346, 2005). Blood glucose concentration was determined each week and just before the experiment. Insulin levels were not determined. Rats were anesthetized with ketolar and diazepam. The surgical procedure consisted of dissection and isolation of the right cavernous nerve through an abdominal midline incision and exposure of penile crura through a transverse perineal incision. Intracavernosal pressure (ICP) measurements were permitted by insertion of a 23-gauge needle into the right crus. The right carotid artery and left external jugular vein were catheterized for constant blood pressure measurement and saline infusion, respectively. Electrostimulation was performed with a delicate platinum bipolar hook electrode connected to a stimulator and current amplifier. The parameters of electrical stimulation consisted of pulses with a duration of 0.3 ms and 1.5 mA of current intensity for 1 min. Frequency-response curves were performed by applying stimulation at 1, 3 and 10 Hz with a lapse of 3 min between each increase of frequency (Angulo et al., J. Sex Med., 2, 341-346, 2005). […] After this period of treatment, the diabetic rats were anesthetized and ICP responses to electrical stimulation were evaluated. After an equilibration period, the PDE5 inhibitor sildenafil (0.3 mg/kg) or the vehicle (25% glycofurol) was intravenously administered. Forty five minutes later, ICP responses were again determined

cGMP in penile tissue = assay: Penile tissue cGMP in STZ-diabetic rats; type: in vivo, rat (Sprague-Dawley); settings: for cGMP content in penile tissue from diabetic rats after administration of sildenafil: then sildenafil 0.3 mg/kg i.v.
Method: Male Sprague-Dawley rats were used as a model for this study. Diabetes was induced by a single injection of streptozotocin (STZ, 60 mg/kg; i.p.) dissolved in 0.1 M citric acid/trisodic citrate buffer (pH 4-4.5) and was assessed by glycemia determination 72 h after induction. Animals were kept, with free access to food and water, for 8 weeks before experimental assays. Eight weeks after induction of diabetes, rats show altered in vivo vascular function (Angulo et al., Naunyn-Schmiedeberg's Arch Pharmacol, 358(5), 529-37, 1998) and reduced erectile responses (Angulo et al., J. Sex Med., 2, 341-346, 2005). Blood glucose concentration was determined each week and just before the experiment. Insulin levels were not determined. Plasma samples were collected, immediately frozen and stored at −80° C. until extraction for cyclic nucleotide assay. Samples were then precipitated in ethanol, centrifuged and the supernatant was dried under a nitrogen stream. Penile tissues were rapidly immersed in liquid nitrogen and were stored at −80° C. until extraction for cyclic nucleotide assay. […] After 10 days treatment, diabetic rats were anesthetized and erectile responses to cavernosal nerve electrical stimulation (CNES) were determined. After an equilibration period, the PDE-5 inhibitor sildenafil (0.3 mg/kg) or the vehicle (25% glycofurol) was intravenously administered. Forty five minutes later, erectile responses to CNES were again evaluated, and 5 min after CNES application, blood was collected for obtaining plasma and serum, and the penis was excised. Serum samples were immediately frozen until determinations of NOx and TBARS. Plasma and penile tissues were immediately frozen until determinations of cGMP.

[2] = tested on: human corpus cavernosum (HCC) strips; assay: Relaxation of human corpus cavernosum strips contracted with U46619; type: cell-based; settings: for relaxation of HCC strips by cumulative addition: U46619 1-3 nM, nebivolol 1 nM to 0.1 mM; for relaxation of HCC strips by cumulative addition / effect on sildenafil-induced relaxation of HCC strips: sildenafil 1 nm to 10 μM; for effect on acetylcholine-induced endothelium-dependent relaxation of HCC strips: metoprolol 1 μM, nebivolol 0.3 μM; for effect on acetylcholine-induced endothelium-dependent relaxation of HCC strips / effect on sildenafil-induced relaxation of HCC strips: atenolol 1 μM; for effect on sildenafil-induced relaxation of HCC strips: nebivolol at 1 and 10 μM
Method: Specimens of human corpus cavernosum were obtained from organ donors and from impotent men at the time of penile prosthesis implantation. Tissues were placed in ice-cold M-400 solution (pH 7.4; 400 mOsm/kg, composition in w/v: 4.19% manitol, 0.2% KH2PO4, 0.97% K2HPO4.3H2O, 0.11% KCl and 0.08% NaHCO3) at the time of removal and transported to the laboratory for utilization within 16 h. Strips of human corpus cavemosum were mounted on force transducers in 8 ml organ baths (37° C.) containing physiological salt solution (PSS) continuously bubbled with 95% O2/5% CO2 mixture to maintain a pH of 7.4. Strips were contracted with the thromboxane receptor agonist U46619 (1-3 nM) and relaxation responses were evaluated by cumulative additions of compounds to the chambers.

[3] = tested on: nitrite plus nitrate (NOx) in rat serum; assay: Serum nitrite plus nitrate (NOx) by Griess colorimetric method; type: in vivo; settings: for effect on serum NOx concentration: i.v.: nebivolol 3 mg/kg, atenolol 3 mg/kg, vs vehicle
Method: Total NO derivatives (nitrites plus nitrates) were measured in pre-filtered (10,000 MW pore size) serum samples from the studied rats by the Griess colorimetric method, using a commercial kit for nitrite and nitrate determination from Cayman Chemical Co. (Ann Arbor, Mich.). Serum concentrations of NOx were determined 10 minutes after nebivolol administration.

[4] = 3 mg/kg/day s.c. for 10 days, sildenafil 0.3 mg/kg i.v.
[5] = 10 mg/kg/day s.c. for 10 days, sildenafil 0.3 mg/kg i.v., atenolol: measured as AUC of ICP

SMILES | relaxation of HCC strips by cumulative addition [2] | effect on serum NOx concentration ([3]; sildenafil 0.3 mg/kg) | effect on NOx content in sera from diabetic rats [1] | potentiation by sildenafil of erectile responses after 10 days treatment (diabetic rats; [4]) | potentiation by sildenafil of erectile responses after 10 days treatment (diabetic rats; [5]) | erectile responses after sildenafil compared with non diabetic rats treated with sildenafil (diabetic rats) | cGMP content in penile tissue from diabetic rats after administration of sildenafil (cGMP in penile tissue; 3 and 10 mg/kg/day for 10 days) | effect on acetylcholine-induced endothelium-dependent relaxation of HCC strips [2] | effect on sildenafil-induced relaxation of HCC strips [2] | further results
CCCc1nn(C)c2c(=O)[nH]c(-c3cc(S(=O)(=O)N4CCN(C)CC4)ccc3OCC)nc12 [sildenafil] | concentration dependent relaxations | did not alter NOx levels |  |  |  |  |  |  |  | effect on serum NOx content in rats ([1]; sildenafil 0.3 mg/kg i.v.): did not modify; influence on the effects of nebivolol and atenolol on NOx content in sera from diabetic rats ([1]; sildenafil 0.3 mg/kg i.v.): not influenced; effect on erectile responses to CNES in diabetic rats (diabetic rats; sildenafil 0.3 mg/kg i.v., vehicle-treated diabetic rats): potentiation of erectile responses; effect on cGMP levels in penile tissue from diabetic and non diabetic rats (cGMP in penile tissue; sildenafil 0.3 mg/kg i.v.): produced an increase; effect on nebivolol-induced increment in serum NOx ([3]; nebivolol 3 mg/kg i.v., L-NAME 3 mg/kg, ODQ 1 mg/kg, propranolol 1 mg/kg, sildenafil 0.3 mg/kg): did not alter NOx levels or affect nebivolol-induced effects
CC(C)NCC(O)COc1ccc(CC(N)=O)cc1 (stereo not drawn) [atenolol] |  | did not significantly alter | did not affect | did not reach statistical significance | reached statistical significance | significantly reduced erectile responses | did not modify | not significantly modified | not affected | effect of the higher dose on erectile function in diabetic rats (diabetic rats; 10 mg/kg/day for 10 days): did not positively affect
OC(CNCC(O)C1CCc2cc(F)ccc2O1)C1CCc2cc(F)ccc2O1 (racemic) [nebivolol, α,α′-iminobis(methylene)bis[6-fluoro-2-chromanmethanol]] | modest relaxant effect | significantly higher than after vehicle | significantly increased | No significant potentiation | No significant potentiation | not significant differences | significantly higher than those obtained in diabetic rats treated with vehicle | not significantly modified | significantly potentiated | NOx effect, comparison of doses ([1]; 3 vs 10 mg/kg/day): more marked with the 3 mg/kg/day dose; erectile effect of 3 mg/kg/day dose compared with 10 mg/kg/day dose (diabetic rats; 3 mg/kg/day for 10 days): equally as effective as the 10 mg/kg/day dose; effect on erectile responses in diabetic rats in the absence of the PDE5 inhibitor (diabetic rats; 3 and 10 mg/kg/day for 10 days): significantly enhanced; erectile responses in treated diabetic rats compared with non diabetic rats (diabetic rats; 3 and 10 mg/kg/day for 10 days, no PDE5 inhibitor): not significantly different from those achieved by non diabetic rats; effect on cGMP content in penile tissue from diabetic rats (cGMP in penile tissue; 3 and 10 mg/kg/day for 10 days): statistically significant increase; effect on acetylcholine-induced (endothelium-dependent) relaxation of HCC ([2]; pre-treatment with nebivolol 10 μM): potentiated; increase of the concentration of NOx in serum compared to the vehicle ([3]; 3 mg/kg i.v.): three-fold increase; concentration of NOx in serum ([3]; 3 mg/kg i.v., 10 minutes after administration, vehicle 4.9±0.4, p<0.05): 15.4 ± 2.8 µM
